Laboratory results as given in the supplement of paper PMC10307832.

Tests used:
Test in all cases: relative viability (nuclei count vs DMSO), 5 days (fraction); higher = more cells survive
[1] = compound: CN1CCN(CC1)C2=CC(=C(C=C2)NC3=NC(=C(S3)C(=O)C4=C(C=CC=C4Cl)Cl)N)OC [XMD14-99] + N=C(N)NC(=N)NCCc1ccccc1 [Phenformin] (partner 250 µM)
Outline: (§1)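 A single step with final 0.05% Triton X-100, 1% formaldehyde and 1 ug/ml Hoechst fixed the cells and stained nuclei 5 days after treatment. Lung cancer cell lines in 1536-well plates had been treated by pin tool the day after seeding with one drug alone or a fixed anchor-drug dose plus five library-drug doses (not always all listed) in √10 steps, and nuclei were counted on 4× images. Relative viability is the ratio of nuclei in treated wells to nuclei in vehicle wells, taken as the median of duplicate plates.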

[2] = compound: CN1CCN(CC1)C2=CC(=C(C=C2)NC3=NC(=C(S3)C(=O)C4=C(C=CC=C4Cl)Cl)N)OC [XMD14-99] + CC(=O)Nc1cccc(-n2c(=O)n(C3CC3)c(=O)c3c(Nc4ccc(I)cc4F)n(C)c(=O)c(C)c32)c1 [Trametinib] (partner 0.02 µM)
Outline: as §1

[3] = compound: CN1CCN(CC1)C2=CC(=C(C=C2)NC3=NC(=C(S3)C(=O)C4=C(C=CC=C4Cl)Cl)N)OC [XMD14-99] + Nc1ncn([C@H]2C[C@H](O)[C@@H](CO)O2)c(=O)n1 [Decitabine] (partner 2 µM)
Outline: as §1

[4] = compound: N[C@@H]1CCCN(c2c(/C=C3\SC(=O)NC3=O)cccc2-c2ccccc2)C1 [AZD1208] + CC1(C)CCC(c2ccc(Cl)cc2)=C(CN2CCN(c3ccc(C(=O)NS(=O)(=O)c4ccc(N[C@H](CCN5CCOCC5)CSc5ccccc5)c(S(=O)(=O)C(F)(F)F)c4)cc3)CC2)C1 [Navitoclax] (partner 0.5 µM)
Outline: as §1

Cell Line	relative viability ([1]; first compound 0.08 µM)	relative viability ([1]; first compound 0.8 µM)	relative viability ([1]; first compound 2.53 µM)	relative viability ([1]; first compound 8 µM)	relative viability ([2]; first compound 0.08 µM)	relative viability ([2]; first compound 0.8 µM)	relative viability ([2]; first compound 2.53 µM)	relative viability ([2]; first compound 8 µM)	relative viability ([3]; first compound 0.08 µM)	relative viability ([3]; first compound 0.8 µM)	relative viability ([3]; first compound 2.53 µM)	relative viability ([3]; first compound 8 µM)	relative viability ([4]; first compound 0.08 µM)	relative viability ([4]; first compound 0.253 µM)	relative viability ([4]; first compound 0.8 µM)	relative viability ([4]; first compound 2.53 µM)	relative viability ([4]; first compound 8 µM)
NCI-H522	0.658	0.616	0.702	0.692	0.783	0.901	0.75	0.85	0.703	0.648	0.554	0.672	–	–	–	–	–
HCC-15	0.51	0.499	0.419	0.321	0.415	0.412	0.353	0.349	0.668	0.605	0.599	0.415	0.632	0.725	0.55	0.642	0.612
A-427	0.431	0.31	0.259	0.231	0.762	0.668	0.651	0.553	0.537	0.545	0.541	0.521	0.936	0.95	0.892	0.876	0.863
NCI-H23	0.767	0.85	0.741	0.659	0.487	0.326	0.47	0.364	0.288	0.262	0.338	0.309	0.843	1.18	0.721	0.712	0.646
NCI-H1734	0.348	0.376	0.368	0.381	0.659	0.68	0.653	0.642	0.505	0.494	0.477	0.477	0.753	0.932	0.714	0.724	0.582
NCI-H1993	0.467	0.506	0.447	0.436	0.593	0.522	0.614	0.54	0.561	0.603	0.587	0.622	–	0.824	0.606	0.812	0.691
PC-3 [JPC-3]	0.494	0.505	0.517	0.47	0.749	0.59	0.645	0.577	0.75	0.88	0.797	0.774	0.859	0.953	0.792	0.809	0.828
NCI-H1915	0.369	0.385	0.36	0.335	0.301	0.311	0.25	0.224	0.25	0.255	0.263	0.259	0.794	0.797	0.839	0.832	0.825
NCI-H1666	0.567	0.553	0.494	0.533	0.883	0.699	0.739	0.864	0.81	0.628	0.686	0.567	0.792	0.802	0.706	0.801	0.942
HCC-366	0.647	0.636	0.564	0.554	0.424	0.309	0.377	0.261	0.32	0.363	0.347	0.291	1.1	0.965	1.02	1.05	0.927
SK-MES-1	0.644	0.647	0.575	0.475	0.524	0.564	0.622	0.392	0.421	0.389	0.451	0.336	1.08	1.41	1.08	1.03	0.926
NCI-H727	0.423	0.43	0.419	0.374	0.352	0.403	0.384	0.39	0.881	0.805	0.857	0.599	0.421	0.357	0.331	0.316	0.29
RERF-LC-KJ	0.425	0.45	0.375	0.388	0.808	0.846	0.76	0.682	0.737	0.674	0.665	0.506	1.03	0.908	0.959	0.921	0.662
NCI-H1623	0.573	0.613	0.584	0.54	–	–	–	–	–	–	–	–	–	–	–	–	–
Calu-6	–	–	–	–	–	–	–	–	–	–	–	–	0.737	0.916	0.906	0.833	0.822
LC-2-ad	0.611	0.554	0.58	0.505	0.956	0.88	0.998	0.873	0.776	0.727	0.777	0.745	0.36	0.356	0.331	0.397	0.489
CAL-12T	0.597	0.567	0.525	0.412	0.358	0.305	0.268	0.241	–	–	–	–	1.28	1.39	1.08	1.28	0.956
SK-LU-1	0.523	0.563	0.456	0.322	0.538	0.502	0.473	0.309	0.606	0.707	0.666	0.412	0.56	0.874	0.883	0.774	0.813
